In ChEMBL document CHEMBL5724914, “Linking interpersonal differences in gut microbiota composition and drug biotransformation activity” (2024):

Tests used:
[1] = (§1) The drug is tested on Z-028 corresponding to mouse gut metagenome with ENA study accession number: PRJEB37062 and ENA sample accession number: ERS12561827 for biotransformation under anaerobic condition. The drug concentrations were measured over 9 timepoints collected between 0 and 24 hours of incubation by liquid-chromatography-coupled mass spectrometry (LC–MS); settings: 2 µM
[2] = as §1, with “Z-010” for “Z-028”, “to” for “to mouse gut”, “ERS12561810” for “ERS12561827”; settings: 2 µM
[3] = as §1, with “Z-001” for “Z-028”, “ERS12561801” for “ERS12561827”; settings: 2 µM
[4] = as §1, with “Z-027” for “Z-028”, “to” for “to mouse gut”, “ERS12561826” for “ERS12561827”; settings: 2 µM
[5] = as §1, with “Z-011” for “Z-028”, “ERS12561811” for “ERS12561827”; settings: 2 µM
[6] = as §1, with “Z-023” for “Z-028”, “to” for “to mouse gut”, “ERS12561822” for “ERS12561827”; settings: 2 µM
[7] = as §1, with “Z-008” for “Z-028”, “to” for “to mouse gut”, “ERS12561808” for “ERS12561827”; settings: 2 µM
[8] = as §1, with “Z-003” for “Z-028”, “pig” for “mouse”, “ERS12561803” for “ERS12561827”; settings: 2 µM
[9] = as §1, with “Z-002” for “Z-028”, “rabbit” for “mouse”, “ERS12561802” for “ERS12561827”; settings: 2 µM
[10] = as §1, with “Z-007” for “Z-028”, “rat” for “mouse”, “ERS12561807” for “ERS12561827”; settings: 2 µM
[11] = as §1, with “Z-004” for “Z-028”, “to” for “to mouse gut”, “ERS12561804” for “ERS12561827”; settings: 2 µM
[12] = as §1, with “Z-009” for “Z-028”, “pig” for “mouse”, “ERS12561809” for “ERS12561827”; settings: 2 µM
[13] = as §1, with “Z-022” for “Z-028”, “ERS12561821” for “ERS12561827”; settings: 2 µM
[14] = as §1, with “Z-026” for “Z-028”, “to” for “to mouse gut”, “ERS12561825” for “ERS12561827”; settings: 2 µM
[15] = as §1, with “Z-021” for “Z-028”, “to” for “to mouse gut”, “ERS12561820” for “ERS12561827”; settings: 2 µM
[16] = as §1, with “Z-024” for “Z-028”, “pig” for “mouse”, “ERS12561823” for “ERS12561827”; settings: 2 µM
[17] = as §1, with “Z-006” for “Z-028”, “ERS12561806” for “ERS12561827”; settings: 2 µM
[18] = as §1, with “Z-012” for “Z-028”, “to” for “to mouse gut”, “ERS12561812” for “ERS12561827”; settings: 2 µM
[19] = as §1, with “Z-005” for “Z-028”, “to” for “to mouse gut”, “ERS12561805” for “ERS12561827”; settings: 2 µM
[20] = human gut metagenome, 24 h, 2 µM
[21] = human gut metagenome, 24 h, 2 µM; remark: listed apart in the source
[22] = human gut metagenome, 24 h, 2 µM; remark: listed apart in the source
[23] = as §1, with “WLS-370” for “Z-028”, “human” for “mouse”, “ERS12561793” for “ERS12561827”; settings: 2 µM
[24] = human gut metagenome, 24 h, 2 µM; remark: listed apart in the source
[25] = human gut metagenome, 24 h, 2 µM; remark: listed apart in the source
[26] = as §1, with “WLS-098” for “Z-028”, “human” for “mouse”, “ERS12561754” for “ERS12561827”; settings: 2 µM
[27] = human gut metagenome, 24 h, 2 µM; remark: listed apart in the source
[28] = human gut metagenome, 24 h, 2 µM; remark: listed apart in the source
[29] = as §1, with “WLS-170” for “Z-028”, “human” for “mouse”, “ERS12561762” for “ERS12561827”; settings: 2 µM
[30] = human gut metagenome, 24 h, 2 µM; remark: listed apart in the source
[31] = human gut metagenome, 24 h, 2 µM; remark: listed apart in the source
[32] = human gut metagenome, 24 h, 2 µM; remark: listed apart in the source
[33] = as §1, with “Z-025” for “Z-028”, “rabbit” for “mouse”, “ERS12561824” for “ERS12561827”; settings: 2 µM
[34] = as §1, with “Z-029” for “Z-028”, “rat” for “mouse”, “ERS12561828” for “ERS12561827”; settings: 2 µM
[35] = as §1, with “Z-030” for “Z-028”, “ERS12561829” for “ERS12561827”; settings: 2 µM
[36] = as §1, with “Z-013” for “Z-028”, “rabbit” for “mouse”, “ERS12561813” for “ERS12561827”; settings: 2 µM
[37] = as §1, with “Z-016” for “Z-028”, “ERS12561815” for “ERS12561827”; settings: 2 µM
Further: call rule not given here.

Row | Structure (SMILES) | Bacterial Biotransformation [1] | Bacterial Biotransformation [2] | Bacterial Biotransformation [3] | Bacterial Biotransformation [4] | Bacterial Biotransformation [5] | Bacterial Biotransformation [6] | Bacterial Biotransformation [7] | Bacterial Biotransformation [8] | Bacterial Biotransformation [9] | Bacterial Biotransformation [10] | Bacterial Biotransformation [11] | Bacterial Biotransformation [12] | Bacterial Biotransformation [13] | Bacterial Biotransformation [14] | Bacterial Biotransformation [15] | Bacterial Biotransformation [16] | Bacterial Biotransformation [17] | Bacterial Biotransformation [18] | Bacterial Biotransformation [19] | further results
1 | C[C@H]1C[C@H]2[C@@H]3CCC4=CC(=O)C=C[C@]4(C)[C@@]3(F)[C@@H](O)C[C@]2(C)[C@@]1(O)C(=O)CO [BETAMETHASONE] | Compound NOT metabolized | Compound metabolized | Compound NOT metabolized | Compound NOT metabolized | Compound NOT metabolized | Compound metabolized | Compound NOT metabolized | Compound metabolized | Compound metabolized | Compound NOT metabolized | Compound metabolized | Compound metabolized | Compound metabolized | Compound metabolized | Compound metabolized | Compound metabolized | Compound NOT metabolized | Compound metabolized | Compound NOT metabolized | –
2 | CN(C)CCOC(c1ccc(Cl)cc1)c1ccccn1.O=C(O)/C=C\C(=O)O (centres undefined) [CARBINOXAMINE MALEATE] | – | – | – | – | – | – | – | – | – | – | – | – | – | – | – | – | – | – | – | Bacterial Biotransformation [20]: Compound NOT metabolized; Bacterial Biotransformation [21]: Compound NOT metabolized; Bacterial Biotransformation [22]: Compound NOT metabolized; Bacterial Biotransformation [23]: Compound NOT metabolized; Bacterial Biotransformation [24]: Compound NOT metabolized; Bacterial Biotransformation [25]: Compound NOT metabolized; Bacterial Biotransformation [26]: Compound NOT metabolized; Bacterial Biotransformation [27]: Compound metabolized; Bacterial Biotransformation [28]: Compound NOT metabolized; Bacterial Biotransformation [29]: Compound metabolized; Bacterial Biotransformation [30]: Compound NOT metabolized; Bacterial Biotransformation [31]: Compound metabolized; Bacterial Biotransformation [32]: Compound metabolized
3 | CN1CCCCC1CCN1c2ccccc2Sc2ccc([S+](C)[O-])cc21.O=S(=O)(O)c1ccccc1 (centres undefined) [MESORIDAZINE BESYLATE] | Compound NOT metabolized | Compound metabolized | Compound NOT metabolized | Compound NOT metabolized | Compound NOT metabolized | Compound NOT metabolized | Compound NOT metabolized | Compound metabolized | Compound metabolized | Compound NOT metabolized | Compound metabolized | Compound metabolized | Compound NOT metabolized | Compound NOT metabolized | Compound NOT metabolized | Compound NOT metabolized | Compound NOT metabolized | Compound metabolized | Compound metabolized | Bacterial Biotransformation [33]: Compound metabolized; Bacterial Biotransformation [34]: Compound NOT metabolized; Bacterial Biotransformation [35]: Compound NOT metabolized; Bacterial Biotransformation [36]: Compound NOT metabolized; Bacterial Biotransformation [37]: Compound metabolized
4 | CN1CCN(CCCN2c3ccccc3Sc3ccc(Cl)cc32)CC1.O=S(=O)(O)CCS(=O)(=O)O [PROCHLORPERAZINE EDISYLATE] | – | – | – | – | – | Compound metabolized | Compound NOT metabolized | – | Compound NOT metabolized | – | – | Compound metabolized | – | Compound metabolized | Compound NOT metabolized | – | Compound NOT metabolized | Compound metabolized | – | –
